Data set [1] has as its system angiotensin II receptor. Kind of data set: isolated rat aorta, inhibition of maximum contraction due to angiotensin II. It counts as cell-based. The following applies: for inhibition at 0.1 µM / inhibition at 0.01 µM / inhibition at 0.001 µM: Rattus norvegicus, angiotensin II 3 × 10^-7 mol/l; for inhibition at 0.1 µM: 10^-7 mol/l compound; for inhibition at 0.01 µM: 10^-8 mol/l compound; for inhibition at 0.001 µM: 10^-9 mol/l compound. The text has this: FIGS. 1a) and b) depict the action of a compound according to the present invention and a compound of the prior art on the contractile force of an isolated rat aorta.
Isolated rat aorta: % inhibition of the maximum contraction

Data set [2] has as its system angiotensin II. Nature of the data set: anaesthetized, normotensive rats, duration of action against angiotensin II after intraduodenal administration. The following applies: for time to maximum angiotensin antagonistic action: after intraduodenal administration, Example 1 at 3 mg/kg. Type of data set: in vivo, rat. The procedure: FIG. 5 depicts the effect of known and prior art intraduodenally administered compounds on angiotensin II induced increases of mean arterial blood pressure in anaesthetized, normotensive rats.
FIGS. 6a) and b) depict the effect of known and prior art intraduodenally administered compounds on antiotensin II induced increases in mean arterial blood pressure in normotensive rats.
The duration of action of the substance was determined in anaesthetized, normotensive rats. Angiotensin II (1 μg.kg) was administered intravenously before substance administration and at 15 minute intervals after intraduodenal substance administration.

The target in data set [3] is angiotensin II-1 subtype receptor. Kind of data set: affinity for angiotensin II-1 subtype receptor on rat adrenal cortex microsomes (3H-DuP 753). Type of data set: binding. Conditions: adrenal cortex microsomes of rats. The procedure:
The affinity of the substances for the angiotensin II-1 subtype receptor was determined on adrenal cortex microsomes of rats (system: ^3 H-DuP 753).

Data set [4] concerns angiotensin II. Kind of data set: pithed rats, inhibition of hypertensive action of angiotensin II. It counts as in vivo, rat. The text has this: FIGS. 2a), b) and c) depict the effect of the presently claimed and known intravenously administered compounds on angiotensin II induced increases on diastolic blood pressure in pithed rats.
FIGS. 3a), b) and c) depict the effect of known and claimed intraduodenally administered compounds on angiotensin II induced increases of diastolic blood pressure in pithed rats.
FIG. 4 depicts further the effect of known and prior art intraduodenally administered compounds on angiotensin II induced increases of diastolic blood pressure in pithed rats.

In data set [5] the test system is angiotensin II receptor. Conditions: cited from earlier work.
The mark [6] stands for this setting: anaesthetized normotensive rats, intraduodenal.

Structures are written as SMILES.

The values that follow come from patent US5298519A, “Acylals of imidazole-5-carboxylic acid derivatives, and their use as angiotensin (II) inhibitors” (priority 1991, dated 1994).

For orientation: inhibition means the change of the read-out against control, counted positive when it falls. The term IC50 denotes the concentration that inhibits the measured activity by half. Higher therefore signals lower potency.

For the compound `CCCCc1nc(Cl)c(C(=O)OC(C)OC(=O)OCC)n1Cc1ccc(-c2ccccc2-c2nn[nH]n2)cc1` (stereo not drawn) [Example 1], in the data set with angiotensin II receptor [1], at 0.1 µM the inhibition was 98%, testing at 0.01 µM gave an inhibition of 72% and 0.001 µM produced 63% inhibition. Besides, the “type of angiotensin II receptor antagonism” value in the data set on angiotensin II receptor [1] (isolated rat aorta) was “selective, non-competitive angiotensin II receptor antagonists”. Besides, the “effectiveness relative to 10 mg/kg of DuP 753” value in the data set with angiotensin II [2] (3 mg/kg of Example 1, intraduodenal, anaesthetized normotensive rats) is listed as “about twice as effective as 10 mg/kg of DuP 753”. Besides, in the data set with angiotensin II [2], the “time to maximum angiotensin antagonistic action” value is 15 min. Also, the sequence of potency entry in the data set on angiotensin II [2] (setting [6]) is reported as “Example 1>DuP 753”. Further, the onset of action entry in the data set with angiotensin II [2] (intraduodenal, normotensive rats) was “particularly rapid, dose-dependent onset of action”. Moreover, in data set [3], inhibition was half-maximal at 79.4 nM (IC50). For the same compound, the “type of inhibition of the hypertensive action of angiotensin II” value (from here on “type of inhibition … of angiotensin II”) with angiotensin II [4] is listed as “in a non-competitive manner”. Moreover, in the data set with angiotensin II [4] (intraduodenal), the “potency after intraduodenal administration” value is given as “by far the most potent substance” and the sequence of potency entry is recorded as “Example 1>DuP 753>EXP 3174”. The “potency relative to EXP 3174” value with angiotensin II [4] (intravenous, Example 1 0.3-10 mg/kg) is on record as “about as potent as EXP 3174”. The “potency relative to DuP 753” value in the data set on angiotensin II [4] (intravenous, Example 1 0.3-10 mg/kg, DuP 753 1-10 mg/kg) is reported as “slightly more potent than DuP 753”.
In the data set on angiotensin II receptor [1], `CCCCc1nc(Cl)c(C(=O)O)n1Cc1ccc(-c2ccccc2-c2nnn[nH]2)cc1` [EXP 3174, 2-n-butyl-4-chloro-1-((2'-(1H-tetrazol-5-yl)biphenyl-4-yl)methyl)imidazole-5-carboxylic acid] came in with an inhibition at 0.1 µM of 100%, an inhibition at 0.01 µM of 95% and an inhibition at 0.001 µM of 76%. The “type of angiotensin II receptor antagonism” value in the data set with angiotensin II receptor [1] (isolated rat aorta) was “selective, non-competitive angiotensin II receptor antagonists”. In the data set on angiotensin II receptor [1] (isolated rat aorta, 10^-9 -10^-7 mol/l), the “reduction of the maximum contraction due to angiotensin II (in words)” value is given as “acting in a comparatively more potent manner”. Moreover, the “contribution to the duration of action of DuP 753” value in the data set on angiotensin II receptor [5] (in vivo) is recorded as “responsible to a large extent for the duration of action of DuP 753”. In the data set with angiotensin II receptor [5] (metabolite of DuP 753), the type of antagonism result is reported as “non-competitive”. Further, it took 7.87 nM to reach half-maximal inhibition in data set [3] (IC50). Besides, in the data set with angiotensin II [4], the “type of inhibition … of angiotensin II” value is given as “in a non-competitive manner”. For the same compound, the sequence of potency result in the data set on angiotensin II [4] (intraduodenal) is “Example 1>DuP 753>EXP 3174”.
For the compound `CCCCc1nc(Cl)c(CO)n1Cc1ccc(-c2ccccc2-c2nnn[nH]2)cc1` [DuP 753, 2-n-butyl-4-chloro-5-hydroxymethyl-1-((2'-(1H-tetrazol-5-yl)biphenyl-4-yl)methyl)imidazole], the “time to maximum angiotensin antagonistic action” value in the data set with angiotensin II [2] lay in the range of 30 to 60 min. The sequence of potency entry is reported as “Example 1>DuP 753” with angiotensin II [2] (setting [6]) and “Example 1>DuP 753>EXP 3174” with angiotensin II [4] (intraduodenal). In the data set with angiotensin II receptor [5] (in vivo), the “conversion on in vivo administration” value was “converted on in vivo administration to a non-competitive metabolite EXP 3174”. Moreover, the IC50 in data set [3] is 7.24 nM. Also, the “type of inhibition … of angiotensin II” value with angiotensin II [4] is “competitive inhibition, that is to say to a parallel shift to the right of the dose-response curve of angiotensin II without a reduction in the maximum effect”.
